Experimental data taken from patent US10023592B2, “Bromodomain inhibitors” (Celgene Quanticel Research, Inc., priority 2013, dated 2018).

Key:
BRD4(BD1) = BRD4(BD1) (Homo sapiens (Human), UniProt O60885); test: In vitro enzyme inhibition assay (BRD4 AlphaScreen); type: binding
How it was run: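 AlphaScreen proximity readout, using streptavidin donor and Ni-chelate acceptor beads at 5 μg/mL final, monitors biotin-H4 tetraacetylated peptide interaction with purified His-tagged BRD4.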

[1] = system: Raji, human Burkitts lymphoma cells; test: Cell-MTS proliferation assay, Raji; type: cell-based; settings: 168 hr
How it was run: (§1)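 Cells were seeded per 96-well at densities giving ~90% confluence by day 7 (Raji 15,000, HL-60 5,000, NCI-H460 3,000) and dosed 24 hr later with an 11-point dilution, 100 μM to 2.0 nM final. Seven-day MTS colorimetric read at OD490; IC50 from background-subtracted, DMSO-normalised values.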

[2] = system: HL-60, human proleukemia cells; test: Cell-MTS proliferation assay, HL-60; type: cell-based; settings: 168 hr
How it was run: as §1

[3] = system: NCI-H460, human non-small cell lung cancer cells; test: Cell-MTS proliferation assay, NCI-H460; type: cell-based; settings: 168 hr
How it was run: as §1

[4] = in vitro enzyme inhibition assay
[5] = Homo sapiens, Raji, Cell-MTS proliferation
[6] = Homo sapiens, HL-60, Cell-MTS proliferation
[7] = Homo sapiens, NCI-H460, Cell-MTS proliferation
[8] = Homo sapiens, Cell-MTS proliferation, Raji cells
[9] = Homo sapiens, Cell-MTS proliferation, HL-60 cells
[10] = Homo sapiens, Cell-MTS proliferation, NCI-H460 cells
[11] = Homo sapiens, Raji, Cell-MTS, class symbols A/B/C
[12] = Homo sapiens, HL-60, Cell-MTS, class symbols A/B/C
[13] = Homo sapiens, NCI-H460, Cell-MTS, class symbols A/B/C

SMILES	IC50 (BRD4(BD1); [4])	IC50 [1, 5]	IC50 [2, 6]	IC50 [3, 7]	other results
CCS(=O)(=O)Nc1ncc(Oc2ccc(F)cc2F)c(-c2cn(C)c(=O)c3ccccc23)n1 [Example 170, N-[5-(2,4-difluorophenoxy)-4-(2-methyl-1-oxoisoquinolin-4-yl)pyrimidin-2-yl]ethanesulfonamide]	< 500 nM	< 500 nM	< 500 nM	> 5000 nM	–
CCCOc1ccc(S(C)(=O)=O)cc1-c1cn(C)c(=O)c2ccccc12 [Example 178, 2-methyl-4-(5-methylsulfonyl-2-propoxyphenyl)isoquinolin-1-one]	< 500 nM	< 500 nM	< 500 nM	> 5000 nM	–
CCS(=O)(=O)Nc1ccc(O[C@H]2CC[C@H](O)CC2)c(-c2cc(C)c(=O)n(C)c2)c1 [Example 430, N-[3-(1,5-dimethyl-6-oxopyridin-3-yl)-4-(trans-4-hydroxycyclohexyl)oxyphenyl]ethanesulfonamide]	< 500 nM	–	–	–	IC50 [1, 8]: < 500 nM; IC50 [2, 9]: < 500 nM; IC50 [3, 10]: > 5000 nM
CC#CCOc1ccc(S(C)(=O)=O)cc1-c1cn(C)c(=O)c2ccccc12 [Example 184, 4-(2-but-2-ynoxy-5-methylsulfonylphenyl)-2-methylisoquinolin-1-one]	< 500 nM	500 to 5000 nM	< 500 nM	500 to 5000 nM	–
CCS(=O)(=O)Nc1cc(-c2cn(C)c(=O)c3ccc(-c4cnn(C)c4)cc23)c(OCC2CC2)cc1F [Example 209, N-[4-(cyclopropylmethoxy)-2-fluoro-5-[2-methyl-6-(1-methylpyrazol-4-yl)-1-oxoisoquinolin-4-yl]phenyl]ethanesulfonamide]	< 500 nM	< 500 nM	< 500 nM	> 5000 nM	–
Cn1cc(-c2cc(S(C)(=O)=O)cnc2OCC2CC2)c2ccccc2c1=O [Example 321, 4-[2-(cyclopropylmethoxy)-5-methylsulfonylpyridin-3-yl]-2-methylisoquinolin-1-one]	< 500 nM	< 500 nM	< 500 nM	> 5000 nM	–
CCS(=O)(=O)Nc1ccc(Oc2ccc(F)cc2F)c(-c2cc(OCC(F)(F)F)c(=O)n(C)c2)c1 [Example 290, N-[4-(2,4-difluorophenoxy)-3-[1-methyl-6-oxo-5-(2,2,2-trifluoroethoxy)pyridin-3-yl]phenyl]ethanesulfonamide]	< 500 nM	< 500 nM	< 500 nM	> 5000 nM	–
CCS(=O)(=O)Nc1ccc(Cl)c(-c2cn(C)c(=O)c3ccc(-c4cnn(C)c4)cc23)c1 [Example 45, N-[4-chloro-3-[2-methyl-6-(1-methylpyrazol-4-yl)-1-oxoisoquinolin-4-yl]phenyl]ethanesulfonamide]	–	–	–	–	IC50 (BRD4(BD1); class symbols A/B/C): < 500 nM; IC50 [1, 11]: < 500 nM; IC50 [2, 12]: < 500 nM; IC50 [3, 13]: 500 to 5000 nM
Cc1cc(-c2nc(NS(C)(=O)=O)ncc2Oc2ccc(F)cc2F)cn(C)c1=O [Example 166, N-[5-(2,4-difluorophenoxy)-4-(1,5-dimethyl-6-oxopyridin-3-yl)pyrimidin-2-yl]methanesulfonamide]	< 500 nM	< 500 nM	< 500 nM	> 5000 nM	–
CCS(=O)(=O)c1cc(-c2cn(C)c(=O)c3ccccc23)c(NCC2CC2)s1 [Example 205, 4-[2-(cyclopropylmethylamino)-5-ethylsulfonylthiophen-3-yl]-2-methylisoquinolin-1-one]	< 500 nM	500 to 5000 nM	500 to 5000 nM	> 5000 nM	–
CCS(=O)(=O)Nc1ccc(Oc2ccc(F)cc2F)c(-c2cn(C)c(=O)c3ncoc23)c1 [Example 240, N-[4-(2,4-difluorophenoxy)-3-(5-methyl-4-oxo-[1,3]oxazolo[4,5-c]pyridin-7-yl)phenyl]ethanesulfonamide]	< 500 nM	< 500 nM	< 500 nM	> 5000 nM	–
Cc1cc(-c2cc(O[C@H](C)c3ccccc3)cc(S(C)(=O)=O)c2)cn(C)c1=O [Example 341, 1,3-dimethyl-5-[3-methylsulfonyl-5-[(1R)-1-phenylethoxy]phenyl]pyridin-2-one]	< 500 nM	< 500 nM	< 500 nM	> 5000 nM	–
Cc1cc(-c2cc(CS(C)(=O)=O)ccc2Oc2ccc(F)cc2F)cn(C)c1=O [Example 455, 5-[2-(2,4-difluorophenoxy)-5-(methylsulfonylmethyl)phenyl]-1,3-dimethylpyridin-2-one]	< 500 nM	–	–	–	IC50 [1, 8]: < 500 nM; IC50 [2, 9]: < 500 nM; IC50 [3, 10]: > 5000 nM
CCS(=O)(=O)c1ccc(NCC2CC2)c(-c2cn(C)c(=O)c3cc(F)ccc23)c1 [Example 195, 4-[2-(cyclopropylmethylamino)-5-ethylsulfonylphenyl]-7-fluoro-2-methylisoquinolin-1-one]	< 500 nM	< 500 nM	< 500 nM	> 5000 nM	–
Cc1cc(-c2cn(CS(C)(=O)=O)c(=O)cc2Oc2ccc(F)cc2F)cn(C)c1=O [Example 385, 5-[4-(2,4-difluorophenoxy)-1-(methylsulfonylmethyl)-6-oxopyridin-3-yl]-1,3-dimethylpyridin-2-one]	< 500 nM	–	–	–	IC50 [1, 8]: < 500 nM; IC50 [2, 9]: < 500 nM; IC50 [3, 10]: > 5000 nM
CCS(=O)(=O)c1ccc(OCC2CC2)c(-c2cc(F)c(=O)n(C)c2)c1 [Example 274, 5-[2-(cyclopropylmethoxy)-5-ethylsulfonylphenyl]-3-fluoro-1-methylpyridin-2-one]	< 500 nM	500 to 5000 nM	500 to 5000 nM	> 5000 nM	–
Cc1cc(-c2nc(S(C)(=O)=O)ncc2Oc2ccc(F)cc2F)cn(C)c1=O [Example 149, 5-[5-(2,4-difluorophenoxy)-2-methylsulfonylpyrimidin-4-yl]-1,3-dimethylpyridin-2-one]	500 to 5000 nM	> 5000 nM	> 5000 nM	> 5000 nM	–
Cc1cc(-c2cc(N(C3COC3)S(C)(=O)=O)ccc2Oc2ccc(F)cc2F)cn(C)c1=O [Example 230, N-[4-(2,4-difluorophenoxy)-3-(1,5-dimethyl-6-oxopyridin-3-yl)phenyl]-N-(oxetan-3-yl)methanesulfonamide]	< 500 nM	< 500 nM	< 500 nM	> 5000 nM	–
Cn1cc(-c2cc(S(C)(=O)=O)ccc2OCC2CC2)c2occc2c1=O [Example 377, 7-[2-(cyclopropylmethoxy)-5-methylsulfonylphenyl]-5-methylfuro[3,2-c]pyridin-4-one]	< 500 nM	–	–	–	IC50 [1, 8]: < 500 nM; IC50 [2, 9]: < 500 nM; IC50 [3, 10]: > 5000 nM
Cn1cc(-c2cc(S(C)(=O)=O)ccc2OCC2CC2)c2ccccc2c1=O [Example 89, 4-[2-(cyclopropylmethoxy)-5-methylsulfonylphenyl]-2-methylisoquinolin-1-one]	–	–	–	–	IC50 (BRD4(BD1); class symbols A/B/C): < 500 nM; IC50 [1, 11]: < 500 nM; IC50 [2, 12]: < 500 nM; IC50 [3, 13]: > 5000 nM
COc1ccc(-c2cn(C)c(=O)c3cnccc23)cc1S(=O)(=O)NCc1ccccc1 [Example 54, N-benzyl-2-methoxy-5-(2-methyl-1-oxo-2,7-naphthyridin-4-yl) benzenesulfonamide]	–	–	–	–	IC50 (BRD4(BD1); class symbols A/B/C): > 5000 nM; IC50 ([1]; Cell-MTS, class symbols A/B/C): > 5000 nM; IC50 ([2]; Cell-MTS, class symbols A/B/C): 500 to 5000 nM; IC50 ([3]; Cell-MTS, class symbols A/B/C): > 5000 nM
Cn1cc(-c2cccc(NS(C)(=O)=O)c2)cc(O)c1=O [Example 467, N-[3-(5-hydroxy-1-methyl-6-oxopyridin-3-yl)phenyl]methanesulfonamide]	500 to 5000 nM	–	–	–	IC50 [1, 8]: > 5000 nM; IC50 [2, 9]: > 5000 nM; IC50 [3, 10]: > 5000 nM
CCS(=O)(=O)Cc1ccc(OCC(F)(F)F)c(-c2cn(C)c(=O)c3cncn23)c1 [Example 371, 5-[5-(ethylsulfonylmethyl)-2-(2,2,2-trifluoroethoxy)phenyl]-7-methylimidazo[1,5-a]pyrazin-8-one]	500 to 5000 nM	500 to 5000 nM	500 to 5000 nM	> 5000 nM	–
Cc1cc(-c2cc(S(C)(=O)=O)ccc2OCC2CCC2)cn(C)c1=O [Example 459, 5-[2-(cyclobutylmethoxy)-5-methylsulfonylphenyl]-1,3-dimethylpyridin-2-one]	< 500 nM	–	–	–	IC50 [1, 8]: < 500 nM; IC50 [2, 9]: < 500 nM; IC50 [3, 10]: > 5000 nM
CCCCc1cnc(NS(=O)(=O)CC)nc1-c1cn(C)c(=O)c2ccccc12 [Example 309, N-[5-butyl-4-(2-methyl-1-oxoisoquinolin-4-yl)pyrimidin-2-yl] ethanesulfonamide]	< 500 nM	< 500 nM	< 500 nM	> 5000 nM	–
Cn1cc(-c2nc(NS(C)(=O)=O)ncc2OCC2CC2)c2ccc(F)cc2c1=O [Example 158, N-[5-(cyclopropylmethoxy)-4-(7-fluoro-2-methyl-1-oxoisoquinolin-4-yl)pyrimidin-2-yl]methanesulfonamide]	< 500 nM	< 500 nM	< 500 nM	> 5000 nM	–
Cn1cc(-c2nc(NS(C)(=O)=O)ncc2Oc2ccc(F)cc2F)c2ccoc2c1=O [Example 262, N-[5-(2,4-difluorophenoxy)-4-(6-methyl-7-oxofuro[2,3-c]pyridin-4-yl)pyrimidin-2-yl]methanesulfonamide]	< 500 nM	< 500 nM	< 500 nM	> 5000 nM	–
